Where a name gives a salt, the structure may show the parent alone.
How the values were obtained:
PI3Kδ = PI3Kδ (Homo sapiens (Human), UniProt O00329); assay: PI3K Enzyme Assay (Example A2), [γ-33P]ATP filter plate; assay type: biochemical
How it was run: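 Recombinant PI3Kδ at 2.9 nM with 50 µM PIP2 in MOPS pH 6.7, MgCl2, DTT, CHAPS, 0.5% DMSO; started with 1000 μM ATP including [γ-33P]ATP, 180 min at room temperature. Phosphorylated product captured on PVDF filter plates and scintillation-counted; IC50 from percent-control activity vs log concentration.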

SUDHL-6 cells = assay: SUDHL-6 Cell Proliferation Assay (Example B3); assay type: cell-based; conditions: 3 days, Cell Titer-GLO
Method: Example B3: SUDHL-6 Cell Proliferation Assay
SUDHL-6 cell line (diffuse large B cell lymphoma) was purchased from ATCC (Manassas, Va.) and maintained in the culture medium recommended (RPMI and 10% FBS). To measure the anti-proliferation activity of the compounds through ATP quantitation, the SUDHL-6 cells was plated with the culture medium (5000 cells/well/per 200 μl) into 96-well polystyrene clear black tissue culture plate (Greiner-bio-one through VWR, NJ) in the presence or absence of a concentration range of test compounds. After 3 days, Cell Titer-GLO Luminescent (Promega, Madison, Wis.) cell culture agent was added to each well for 10 minutes at room temperature to stabilize the luminescent signal. This determines the number of viable cells in culture based on quantitation of the ATP present, which signals the presence of metabolically active cells. Luminescence was measured with the TopCount 384 (Packard Bioscience through Perkin Elmer, Boston, Mass.). […] IC50 data for the Examples is presented in Table 4 determined by the assay of Example B3.

PI3Kδ (p110δ/p85α) = PI3Kδ (p110δ/p85α) (Homo sapiens (Human), UniProt O00329); assay: PI3Kδ Scintillation Proximity Assay (Example A3); assay type: biochemical
From the text: Example A3: PI3Kδ Scintillation Proximity Assay
[γ-^33P]ATP (10 mCi/mL) was purchased from Perkin-Elmer (Waltham, Mass.). Lipid kinase substrate, D-myo-Phosphatidylinositol 4,5-bisphosphate (PtdIns(4,5)P2)D (+)-sn-1,2-di-O-octanoylglyceryl, 3-O-phospho linked (PIP2), CAS 204858-53-7, was purchased from Echelon Biosciences (Salt Lake City, Utah). PI3Kδ (p110δ/p85α) was purchased from Millipore (Bedford, Mass.). ATP, MgCl2, DTT, EDTA, MOPS and CHAPS were purchased from Sigma-Aldrich (St. Louis, Mo.). Wheat Germ Agglutinin (WGA) YSi SPA Scintillation Beads was purchased from GE healthcare life sciences (Piscataway, N.J.).
The kinase reaction was conducted in polystyrene 384-well matrix white plate from Thermo Fisher Scientific in a final volume of 25 μL. Inhibitors were first diluted serially in DMSO and added to the plate wells before the addition of other reaction components. The final concentration of DMSO in the assay was 0.5%. The PI3K assays were carried out at room temperature in 20 mM MOPS, pH 6.7, 10 mM MgCl2, 5 mM DTT and CHAPS 0.03%. Reactions were initiated by the addition of ATP, the final reaction mixture consisted of 20 µM PIP2, 20 µM ATP, 0.2 μCi [γ-^33P]ATP, 4 nM PI3Kδ. Reactions were incubated for 210 min and terminated by the addition of 40 μL SPA beads suspended in quench buffer: 150 mM potassium phosphate pH 8.0, 20% glycerol. 25 mM EDTA, 400 µM ATP. The final concentration of SPA beads was 1.0 mg/mL. After the plate sealing, plates were shaken overnight at room temperature and centrifuged at 1800 rpm for 10 minutes, the radioactivity of the product was determined by scintillation counting on Topcount (Perkin-Elmer). IC50 determination was performed by fitting the curve of percent control activity versus the log of the inhibitor concentration using the GraphPad Prism 3.0 software. […] IC50 data for Examples 1-25 is presented in Table 3 for PI3Kδ as determined by the assay of Example A2 or A3 as indicated

PI3Kδ (p110δ/p85α), sequence (O00329 whole entry): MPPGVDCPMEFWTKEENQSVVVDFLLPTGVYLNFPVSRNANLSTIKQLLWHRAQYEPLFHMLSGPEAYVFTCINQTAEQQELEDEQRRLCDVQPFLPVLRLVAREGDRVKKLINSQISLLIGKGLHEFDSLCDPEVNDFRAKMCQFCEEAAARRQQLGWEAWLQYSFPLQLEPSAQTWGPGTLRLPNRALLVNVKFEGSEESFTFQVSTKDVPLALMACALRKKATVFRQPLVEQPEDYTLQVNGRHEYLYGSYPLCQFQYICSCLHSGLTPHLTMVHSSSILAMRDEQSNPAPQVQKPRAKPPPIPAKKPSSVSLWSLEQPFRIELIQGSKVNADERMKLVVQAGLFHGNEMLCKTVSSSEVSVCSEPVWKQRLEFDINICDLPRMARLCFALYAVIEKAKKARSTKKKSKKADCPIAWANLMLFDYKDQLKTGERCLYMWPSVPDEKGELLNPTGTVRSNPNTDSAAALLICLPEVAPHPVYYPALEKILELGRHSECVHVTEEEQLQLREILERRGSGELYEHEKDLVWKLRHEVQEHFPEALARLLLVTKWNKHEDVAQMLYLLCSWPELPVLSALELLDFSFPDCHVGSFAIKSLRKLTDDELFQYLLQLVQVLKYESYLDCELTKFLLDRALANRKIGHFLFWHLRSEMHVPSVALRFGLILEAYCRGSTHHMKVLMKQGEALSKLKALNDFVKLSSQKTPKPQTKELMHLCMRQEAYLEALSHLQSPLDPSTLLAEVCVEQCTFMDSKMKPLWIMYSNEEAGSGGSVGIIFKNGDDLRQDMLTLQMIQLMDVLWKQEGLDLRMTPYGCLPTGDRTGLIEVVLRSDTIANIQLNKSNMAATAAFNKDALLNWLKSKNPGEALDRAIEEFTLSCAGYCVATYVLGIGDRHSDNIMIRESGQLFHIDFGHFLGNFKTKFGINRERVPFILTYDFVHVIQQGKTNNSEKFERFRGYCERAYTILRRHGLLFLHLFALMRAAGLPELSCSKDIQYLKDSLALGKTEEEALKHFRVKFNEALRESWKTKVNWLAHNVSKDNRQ
PI3Kδ (p110δ/p85α), sequence (P27986 whole entry partner): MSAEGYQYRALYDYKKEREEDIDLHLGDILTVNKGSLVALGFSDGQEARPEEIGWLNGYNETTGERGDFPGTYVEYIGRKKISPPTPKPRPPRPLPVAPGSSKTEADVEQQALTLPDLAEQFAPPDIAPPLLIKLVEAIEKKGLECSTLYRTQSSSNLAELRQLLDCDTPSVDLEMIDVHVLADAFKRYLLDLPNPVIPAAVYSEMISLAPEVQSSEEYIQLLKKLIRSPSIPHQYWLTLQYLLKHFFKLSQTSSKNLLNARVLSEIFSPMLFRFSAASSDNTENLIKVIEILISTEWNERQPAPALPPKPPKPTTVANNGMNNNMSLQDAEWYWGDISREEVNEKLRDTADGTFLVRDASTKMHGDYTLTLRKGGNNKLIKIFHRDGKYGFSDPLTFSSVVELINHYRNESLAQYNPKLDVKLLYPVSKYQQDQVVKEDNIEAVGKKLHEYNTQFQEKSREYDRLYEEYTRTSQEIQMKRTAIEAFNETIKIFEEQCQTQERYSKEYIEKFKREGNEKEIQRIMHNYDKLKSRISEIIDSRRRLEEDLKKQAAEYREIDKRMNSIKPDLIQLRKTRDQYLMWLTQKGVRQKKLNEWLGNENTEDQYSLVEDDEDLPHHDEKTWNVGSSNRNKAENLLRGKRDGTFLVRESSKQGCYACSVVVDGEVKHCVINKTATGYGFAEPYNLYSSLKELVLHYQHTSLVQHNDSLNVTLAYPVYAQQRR
PI3Kδ, sequence (O00329 whole entry): as the sequence (O00329 whole entry) above
PI3Kδ, sequence (P27986 whole entry partner): as the sequence (P27986 whole entry partner) above

| Compound | IC50 (PI3Kδ) | IC50 (SUDHL-6 cells; Homo sapiens, SU-DHL-6, 72 h) | IC50 (SUDHL-6 cells) | IC50 (PI3Kδ (p110δ/p85α)) |
| --- | --- | --- | --- | --- |
| CC(=O)N1CC(N2Cc3c(F)c(Cl)cc(C(C)n4nc(C)c5c(N)ncnc54)c3OC(C)C2)C1 (single isomer, unassigned) [Example 28, 1-{1-[4-(1-Acetylazetidin-3-yl)-7-chloro-6-fluoro-2-methyl-2,3,4,5-tetrahydro-1,4-benzoxazepin-9-yl]ethyl}-3-methyl-1H-pyrazolo[3,4-d]pyrimidin-4-amine] | ≤ 100 nM | ≤ 500 nM | – | – |
| COCC(=O)N1CCOc2c(C(C)n3nc(C)c4c(N)ncnc43)cc(Cl)c(C)c2C1 (centres unmarked) [Example 21, 1-{1-[7-Chloro-4-(methoxyacetyl)-6-methyl-2,3,4,5-tetrahydro-1,4-benzoxazepin-9-yl]ethyl}-3-methyl-1H-pyrazolo[3,4-d]pyrimidin-4-amine trifluoroacetate] | – | – | – | ≤ 100 nM |
| Cc1c(Cl)cc(C(C)n2nc(C)c3c(N)ncnc32)c2c1CN(C(=O)C(C)C)CCO2 (centres unmarked) [Example 22, 1-[1-(7-Chloro-4-isobutyryl-6-methyl-2,3,4,5-tetrahydro-1,4-benzoxazepin-9-yl)ethyl]-3-methyl-1H-pyrazolo[3,4-d]pyrimidin-4-amine trifluoroacetate] | – | – | – | ≤ 100 nM |
| Cc1c(Cl)cc(C(C)n2nc(C)c3c(N)ncnc32)c2c1CN(c1ncc(C#N)s1)CCO2 (centres unmarked) [Example 23, 2-[9-[1-(4-Amino-3-methyl-1H-pyrazolo[3,4-d]pyrimidin-1-yl)ethyl]-7-chloro-6-methyl-2,3-dihydro-1,4-benzoxazepin-4(5H)-yl]-1,3-thiazole-5-carbonitrile trifluoroacetate] | – | – | – | ≤ 100 nM |
| Cc1c(Cl)cc(C(C)n2nc(C)c3c(N)ncnc32)c2c1CN(c1cnccn1)CCO2 (centres unmarked) [Example 24, 1-[1-(7-Chloro-6-methyl-4-pyrazin-2-yl-2,3,4,5-tetrahydro-1,4-benzoxazepin-9-yl)ethyl]-3-methyl-1H-pyrazolo[3,4-d]pyrimidin-4-amine bis(trifluoroacetate)] | – | – | – | ≤ 100 nM |
| Cc1c(Cl)cc(C(C)n2nc(C)c3c(N)ncnc32)c2c1C(=O)NCCO2 (centres unmarked) [Example 25, 9-[1-(4-Amino-3-methyl-1H-pyrazolo[3,4-d]pyrimidin-1-yl)ethyl]-7-chloro-6-methyl-3,4-dihydro-1,4-benzoxazepin-5(2H)-one trifluoroacetate] | – | – | – | ≤ 100 nM |

Continued, values first:

| IC50 (PI3Kδ) | IC50 (SUDHL-6 cells; Homo sapiens, SU-DHL-6, 72 h) | IC50 (SUDHL-6 cells) | IC50 (PI3Kδ (p110δ/p85α)) | Compound |
| --- | --- | --- | --- | --- |
| ≤ 100 nM | – | ≤ 500 nM | – | CC(=O)N1CC(N2Cc3c(F)c(Cl)cc(C(C)n4nc(C)c5c(N)ncnc54)c3OC(C)C2)C1 (single isomer, unassigned) [Example 29, 1-{1-[4-(1-Acetylazetidin-3-yl)-7-chloro-6-fluoro-2-methyl-2,3,4,5-tetrahydro-1,4-benzoxazepin-9-yl]ethyl}-3-methyl-1H-pyrazolo[3,4-d]pyrimidin-4-amine] |
| ≤ 100 nM | – | ≤ 500 nM | – | CC(=O)N1CC(N2Cc3c(F)c(Cl)cc(C(C)n4nc(C)c5c(N)ncnc54)c3OC(C)C2)C1 (single isomer, unassigned) [Example 30, 1-{1-[4-(1-Acetylazetidin-3-yl)-7-chloro-6-fluoro-2-methyl-2,3,4,5-tetrahydro-1,4-benzoxazepin-9-yl]ethyl}-3-methyl-1H-pyrazolo[3,4-d]pyrimidin-4-amine] |
| ≤ 100 nM | – | ≤ 500 nM | – | CC(=O)N1CC(N2Cc3c(F)c(Cl)cc(C(C)n4nc(C)c5c(N)ncnc54)c3OC(C)C2)C1 (single isomer, unassigned) [Example 32, 1-{1-[4-(1-Acetylazetidin-3-yl)-7-chloro-6-fluoro-2-methyl-2,3,4,5-tetrahydro-1,4-benzoxazepin-9-yl]ethyl}-3-methyl-1H-pyrazolo[3,4-d]pyrimidin-4-amine] |
| ≤ 100 nM | ≤ 500 nM | – | – | Cc1nn(C(C)c2cc(Cl)c(F)c3c2OC(C)CN(S(C)(=O)=O)C3)c2ncnc(N)c12 (single isomer, unassigned) [Example 37, 1-{1-[7-Chloro-6-fluoro-2-methyl-4-(methylsulfonyl)-2,3,4,5-tetrahydro-1,4-benzoxazepin-9-yl]ethyl}-3-methyl-1H-pyrazolo[3,4-d]pyrimidin-4-amine] |
| ≤ 100 nM | – | ≤ 500 nM | – | Cc1nn(C(C)c2cc(Cl)c(F)c3c2OC(C)CN(S(C)(=O)=O)C3)c2ncnc(N)c12 (single isomer, unassigned) [Example 40, 1-{1-[7-Chloro-6-fluoro-2-methyl-4-(methylsulfonyl)-2,3,4,5-tetrahydro-1,4-benzoxazepin-9-yl]ethyl}-3-methyl-1H-pyrazolo[3,4-d]pyrimidin-4-amine] |
| ≤ 100 nM | – | ≤ 500 nM | – | CC(=O)N1CC(N2Cc3c(C#N)c(Cl)cc(C(C)n4nc(C)c5c(N)ncnc54)c3OC(C)C2)C1 (single isomer, unassigned) [Example 49, 4-(1-Acetylazetidin-3-yl)-9-[1-(4-amino-3-methyl-1H-pyrazolo[3,4-d]pyrimidin-1-yl)ethyl]-7-chloro-2-methyl-2,3,4,5-tetrahydro-1,4-benzoxazepine-6-carbonitrile] |
| ≤ 100 nM | ≤ 500 nM | – | – | Cc1nn(C(C)c2cc(Cl)c(C#N)c3c2OC(C)CN(CCO)C3)c2ncnc(N)c12 (single isomer, unassigned) [Example 62, 9-[1-(4-Amino-3-methyl-1H-pyrazolo[3,4-d]pyrimidin-1-yl)ethyl]-7-chloro-4-(2-hydroxyethyl)-2-methyl-2,3,4,5-tetrahydro-1,4-benzoxazepine-6-carbonitrile] |
| ≤ 100 nM | – | ≤ 500 nM | – | Cc1nn(C(C)c2cc(Cl)c(C#N)c3c2OC(C)CN(CCO)C3)c2ncnc(N)c12 (single isomer, unassigned) [Example 63, 9-[1-(4-Amino-3-methyl-1H-pyrazolo[3,4-d]pyrimidin-1-yl)ethyl]-7-chloro-4-(2-hydroxyethyl)-2-methyl-2,3,4,5-tetrahydro-1,4-benzoxazepine-6-carbonitrile] |
